Reference: ChEMBL document CHEMBL2176953, “Synthesis and evaluation of α-thymidine analogues as novel antimalarials” (J Med Chem, 2012)

Experiments:
Thymidylate kinase = target: T1, Thymidylate kinase (Plasmodium falciparum (isolate 3D7), UniProt Q8I4S1); assay: Inhibition of recombinant Plasmodium falciparum TMPK using TMP as substrate by pyruvate kinase and lactate dehydrogenase enzyme coupled assay
T1 sequence (Q8I4S1 whole entry): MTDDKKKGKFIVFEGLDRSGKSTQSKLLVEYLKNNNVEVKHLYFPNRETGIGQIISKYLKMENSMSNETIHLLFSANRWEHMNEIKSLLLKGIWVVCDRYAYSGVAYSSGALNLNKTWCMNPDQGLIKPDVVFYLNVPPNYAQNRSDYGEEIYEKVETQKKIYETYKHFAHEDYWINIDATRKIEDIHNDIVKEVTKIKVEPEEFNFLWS

Plasmodium falciparum = assay: Antimalarial activity against erythrocytic stages of Plasmodium falciparum 3D7 infected in human O positive RBC after 48 hrs by SYBR-green assay; type: functional, organism-based; settings: 3D7, 48 h
MRC5 = assay: Cytotoxicity against human MRC5 cells; type: cell-based

Structure (SMILES) | Ki (Thymidylate kinase) [µM] | EC50 (Plasmodium falciparum) [µM] | CC50 (MRC5) [µM]
Cc1cn([C@@H]2C[C@H](O)[C@@H](CNC(=O)Nc3ccc(Br)cc3)O2)c(=O)[nH]c1=O | > 1000 | 1.5 | > 50
Cc1cn([C@@H]2C[C@H](O)[C@@H](CNC(=O)NCc3ccccc3)O2)c(=O)[nH]c1=O | 198 | 64 | 
COc1cccc(NC(=O)NC[C@H]2O[C@@H](n3cc(C)c(=O)[nH]c3=O)C[C@@H]2O)c1 | 69 | > 100 | 
Cc1cn([C@@H]2C[C@H](O)[C@@H](CNS(=O)(=O)c3ccc([N+](=O)[O-])cc3)O2)c(=O)[nH]c1=O | > 1000 | > 100 | 
Cc1cn([C@H]2C[C@H](O)[C@@H](CNC(=S)Nc3ccc(Cl)c(C(F)(F)F)c3)O2)c(=O)[nH]c1=O | 25 | 42 | 
Cc1cn([C@H]2C[C@H](O)[C@@H](CNC(=O)Nc3cccc4ccccc34)O2)c(=O)[nH]c1=O |  | > 100 | 
Cc1cn([C@@H]2C[C@H](O)[C@@H](CNC(=O)Nc3ccc(OC4CCOCC4)cc3)O2)c(=O)[nH]c1=O |  | 1.3 | > 50
Cc1ccc2nc(-c3ccc(NC(=O)NC[C@H]4O[C@H](n5cc(C)c(=O)[nH]c5=O)C[C@@H]4O)cc3)sc2c1 |  | 4.6 | > 50
COc1ccc(COc2ccc(NC(=O)NC[C@H]3O[C@@H](n4cc(C)c(=O)[nH]c4=O)C[C@@H]3O)cc2)cc1 |  | 3.8 | > 50
Cc1cn([C@@H]2C[C@H](O)[C@@H](CNC(=O)c3ccc4ccccc4c3)O2)c(=O)[nH]c1=O | 541 | > 100 | 
Cc1cn([C@H]2C[C@H](O)[C@@H](CNC(=O)Nc3ccc(OCc4ccccc4)cc3)O2)c(=O)[nH]c1=O |  | 4 | > 50
Cc1cn([C@@H]2C[C@H](O)[C@@H](CNC(=S)Nc3ccc(Cl)cc3)O2)c(=O)[nH]c1=O | 90 | 13 | > 50
Cc1cn([C@H]2C[C@H](O)[C@@H](CNC(=O)Nc3ccccc3Cl)O2)c(=O)[nH]c1=O | 52 | > 100 | 
CCOC(=O)CCNC(=O)NC[C@H]1O[C@@H](n2cc(C)c(=O)[nH]c2=O)C[C@@H]1O | 201 | > 100 | 
COc1ccccc1NC(=O)NC[C@H]1O[C@H](n2cc(C)c(=O)[nH]c2=O)C[C@@H]1O | 138 | 44 | 
Cc1cn([C@@H]2C[C@H](O)[C@@H](CNC(=O)Nc3ccc(-c4ccc(C(F)(F)F)nc4)cc3)O2)c(=O)[nH]c1=O |  | 1.4 | > 50
CCOC(=O)CCNC(=O)NC[C@H]1O[C@H](n2cc(C)c(=O)[nH]c2=O)C[C@@H]1O | > 1000 | > 100 | 
Cc1cn([C@H]2C[C@H](O)[C@@H](CNC(=O)NCc3ccccc3)O2)c(=O)[nH]c1=O | 64 | > 200 | 
Cc1cn([C@H]2C[C@H](O)[C@@H](CNCc3ccc([N+](=O)[O-])cc3)O2)c(=O)[nH]c1=O | 742 | > 100 | 
Cc1cn([C@H]2C[C@H](O)[C@@H](CNC(=O)Nc3ccc(OCc4ccccc4Cl)cc3)O2)c(=O)[nH]c1=O |  | 0.41 | > 50
COc1ccc(NC(=O)NC[C@H]2O[C@H](n3cc(C)c(=O)[nH]c3=O)C[C@@H]2O)cc1 |  | 2.5 | > 50
Cc1cn([C@H]2C[C@H](O)[C@@H](CNC(=O)Nc3ccc(OC4CCOCC4)cc3)O2)c(=O)[nH]c1=O |  | 33 | 

Structure (SMILES) | Ki (Thymidylate kinase) [µM] | EC50 (Plasmodium falciparum) [µM] | CC50 (MRC5) [µM]
Cc1ccc2nc(-c3ccc(NC(=O)NC[C@H]4O[C@@H](n5cc(C)c(=O)[nH]c5=O)C[C@@H]4O)cc3)sc2c1 |  | > 200 | 
COc1ccc(COc2ccc(NC(=O)NC[C@H]3O[C@H](n4cc(C)c(=O)[nH]c4=O)C[C@@H]3O)cc2)cc1 |  | 0.21 | 
Cc1cn([C@@H]2C[C@H](O)[C@@H](CNC(=S)Nc3ccc(OCc4ccccc4)cc3)O2)c(=O)[nH]c1=O |  | 9.5 | > 50
Cc1cn([C@H]2C[C@H](O)[C@@H](CNC(=O)c3ccc4ccccc4c3)O2)c(=O)[nH]c1=O | > 1000 | > 100 | 
Cc1cn([C@H]2C[C@H](O)[C@@H](CNC(=O)Nc3ccc(Br)cc3)O2)c(=O)[nH]c1=O | 15 | 30 | 
Cc1cn([C@H]2C[C@H](O)[C@@H](CNC(=O)Nc3ccc(-c4ccccc4)cc3)O2)c(=O)[nH]c1=O |  | 3.3 | > 50
Cc1cn([C@@H]2C[C@H](O)[C@@H](CNS(=O)(=O)c3ccc4ccccc4c3)O2)c(=O)[nH]c1=O | > 1000 | > 100 | 
COc1ccccc1NC(=O)NC[C@H]1O[C@@H](n2cc(C)c(=O)[nH]c2=O)C[C@@H]1O | 107 | > 100 | 
Cc1cn([C@@H]2C[C@H](O)[C@@H](CNC(=O)Nc3ccccc3-c3ccccc3)O2)c(=O)[nH]c1=O |  | 96 | 
COc1ccc(NC(=O)NC[C@H]2O[C@@H](n3cc(C)c(=O)[nH]c3=O)C[C@@H]2O)cc1 | 50 | 69 | 
Cc1cn([C@@H]2C[C@H](O)[C@@H](CNC(=S)Nc3ccc(N4CCOCC4)cc3)O2)c(=O)[nH]c1=O |  | 35 | 
Cc1cn([C@@H]2C[C@H](O)[C@@H](CNC(=O)Nc3ccc(OCc4ccc(C(C)(C)C)cc4)cc3)O2)c(=O)[nH]c1=O |  | 1.8 | > 50
Cc1cn([C@@H]2C[C@H](O)[C@@H](CNC(=O)c3ccc([N+](=O)[O-])cc3)O2)c(=O)[nH]c1=O | 541 | > 100 | 
Cc1cn([C@H]2C[C@H](O)[C@@H](CNC(=O)Nc3ccc(Cl)c(C(F)(F)F)c3)O2)c(=O)[nH]c1=O | 27 | 114 | 
Cc1cn([C@@H]2C[C@H](O)[C@@H](CNC(=O)Nc3ccccc3Cl)O2)c(=O)[nH]c1=O | 205 | 36 | 
Cc1cn([C@@H]2C[C@H](O)[C@@H](CNC(=O)Nc3ccc(OCc4cccc(Cl)c4)cc3)O2)c(=O)[nH]c1=O |  | 0.24 | > 50
Cc1cn([C@H]2C[C@H](O)[C@@H](CNC(=S)Nc3ccc(Cl)cc3)O2)c(=O)[nH]c1=O | 37 | > 200 | 
Cc1cn([C@@H]2C[C@H](O)[C@@H](CNC(=O)Nc3ccc(OCc4ccc(Cl)cc4)cc3)O2)c(=O)[nH]c1=O |  | 0.88 | > 50
Cc1cn([C@H]2C[C@H](O)[C@@H](CNC(=O)Nc3ccccc3-c3ccccc3)O2)c(=O)[nH]c1=O |  | 253 | 
Cc1cn([C@@H]2C[C@H](O)[C@@H](CNC(=O)Nc3cccnc3)O2)c(=O)[nH]c1=O | > 1000 | > 100 | 
Cc1cn([C@H]2C[C@H](O)[C@@H](CNS(=O)(=O)c3ccc4ccccc4c3)O2)c(=O)[nH]c1=O | > 1000 | > 100 | 
Cc1cn([C@H]2C[C@H](O)[C@@H](CNC(=S)Nc3ccc(Br)cc3)O2)c(=O)[nH]c1=O | 32 | 172 | 

Structure (SMILES) | Ki (Thymidylate kinase) [µM] | EC50 (Plasmodium falciparum) [µM] | CC50 (MRC5) [µM]
COc1cccc(NC(=O)NC[C@H]2O[C@H](n3cc(C)c(=O)[nH]c3=O)C[C@@H]2O)c1 | 159 | 56 | 
Cc1cn([C@H]2C[C@H](O)[C@@H](CNC(=O)Nc3cccnc3)O2)c(=O)[nH]c1=O | 222 | > 100 | 
Cc1cn([C@H]2C[C@H](O)[C@@H](CNC(=O)Nc3ccc(N4CCCCC4)cc3)O2)c(=O)[nH]c1=O |  | 4.8 | > 50
Cc1cn([C@@H]2C[C@H](O)[C@@H](CNC(=O)Nc3cccc(COc4ccccc4)c3)O2)c(=O)[nH]c1=O |  | 1.8 | > 50
Cc1cn([C@@H]2C[C@H](O)[C@@H](CNC(=O)Nc3ccc(N4CCN(C)CC4)cc3)O2)c(=O)[nH]c1=O |  | 29 | 
Cc1cn([C@H]2C[C@H](O)[C@@H](CNC(=O)Nc3ccccc3COc3ccccc3)O2)c(=O)[nH]c1=O |  | 48 | 
Cc1cn([C@H]2C[C@H](O)[C@@H](CNC(=O)c3ccc([N+](=O)[O-])cc3)O2)c(=O)[nH]c1=O | 302 | > 100 | 
Cc1cn([C@@H]2C[C@H](O)[C@@H](CNC(=O)Nc3ccccc3COc3ccccc3)O2)c(=O)[nH]c1=O |  | 7.2 | > 50
Cc1cn([C@H]2C[C@H](O)[C@@H](CNC(=O)Nc3ccc(Cl)cc3)O2)c(=O)[nH]c1=O | 14 | > 200 | 
Cc1cn([C@H]2C[C@H](O)[C@@H](CNC(=O)Nc3ccccc3)O2)c(=O)[nH]c1=O | 60 | > 100 | 
Cc1cn([C@H]2C[C@H](O)[C@@H](CNC(=O)Nc3ccc(N4CCN(C)CC4)cc3)O2)c(=O)[nH]c1=O |  | 26 | 
Cc1cn([C@H]2C[C@H](O)[C@@H](CNC(=O)Nc3ccc([N+](=O)[O-])cc3)O2)c(=O)[nH]c1=O | 11 | 69 | 
Cc1cn([C@H]2C[C@H](O)[C@@H](CNS(=O)(=O)c3ccc([N+](=O)[O-])cc3)O2)c(=O)[nH]c1=O | > 1000 | > 100 | 
Cc1cn([C@H]2C[C@H](O)[C@@H](CNC(=O)Nc3cccc(Cl)c3)O2)c(=O)[nH]c1=O | 28 | > 100 | 
Cc1cn([C@@H]2C[C@H](O)[C@@H](CNC(=S)Nc3ccc(Br)cc3)O2)c(=O)[nH]c1=O | 65 | 20 | 
Cc1cn([C@H]2C[C@H](O)[C@@H](CNC(=O)Nc3cccc(COc4ccccc4)c3)O2)c(=O)[nH]c1=O |  | 148 | 
Cc1cn([C@@H]2C[C@H](O)[C@@H](CNC(=O)Nc3ccc([N+](=O)[O-])cc3)O2)c(=O)[nH]c1=O | 11 | 31 | 
Cc1cn([C@@H]2C[C@H](O)[C@@H](CNC(=O)Nc3ccccc3)O2)c(=O)[nH]c1=O | 166 | 23 | 
Cc1cn([C@@H]2C[C@H](O)[C@@H](CNC(=O)Nc3ccc(Cc4ccccc4)cc3)O2)c(=O)[nH]c1=O |  | 1.5 | > 50
Cc1cn([C@@H]2C[C@H](O)[C@@H](CNCc3ccc([N+](=O)[O-])cc3)O2)c(=O)[nH]c1=O | > 1000 | > 100 | 
Cc1cn([C@H]2C[C@H](O)[C@@H](CNC(=O)Nc3ccc(C(C)(C)C)cc3)O2)c(=O)[nH]c1=O | 47 | 64 | 
